Read-outs that look alike come from different tables or passages of the source.
Tested on: HCV 1b genotype
Assay: HCV replicon assay (HCV-neo replicon cells, wild-type)
Type: cell-based, Hepatitis C virus
Conditions: HCV 1b genotype replicon
Description: An HCV Replicon assay was utilized in the present disclosure, and was prepared, conducted and validated as described in commonly owned PCT/US2006/022197 and in O'Boyle et al., Antimicrob. Agents Chemother, 49(4):1346-1353 (April 2005). Assay methods incorporating luciferase reporters have also been used as described (Apath.com).
HCV-neo replicon cells and replicon cells containing resistance substitutions in the NS5A region were used to test the currently described family of compounds.
The compounds were determined to have differing degrees of reduced inhibitory activity on cells containing mutations vs. the corresponding inhibitory potency against wild-type cells. Thus, the compounds of the present disclosure can be effective in inhibiting the function of the HCV NS5A protein and are understood to be as effective in combinations as previously described in application PCT/US2006/022197 and commonly owned WO 04/014852. It should be understood that the compounds of the present disclosure can inhibit multiple genotypes of HCV. […] In one embodiment, compounds of the present disclosure are inhibitory versus 1a, 1b, 2a, 2b, 3a, 4a, and 5a genotypes.

[1] = Hepatitis C virus, class symbol, read-out: EC50 Range against HCV 1b
[2] = Hepatitis C virus, class symbols, read-out: EC50 Range against HCV 1b
[3] = Hepatitis C virus, read-out: EC50 1b

SMILES: Cn1nc(-c2ccc(NC(=O)[C@@H]3CCCN3C(=O)Cc3ccccc3)cc2)cc1-c1ccc(NC(=O)[C@@H]2CCCN2C(=O)Cc2ccccc2)cc1 [FY-1, (2S,2′S)-N,N′-((1-methyl-1H-pyrazole-3,5-diyl)di-4,1-phenylene)bis(1-(phenylacetyl)-2-pyrrolidinecarboxamide)]
- EC50 [1]: 100 to 999 nM

SMILES: C[C@H](NC(=O)c1cc(Cl)cc2ccccc12)C(=O)Nc1ccc(-c2cc(-c3ccc(NC(=O)[C@H](C)NC(=O)c4cc(Cl)cc5ccccc45)cc3)[nH]n2)cc1 [OL-47, N,N′-(1H-pyrazole-3,5-diylbis(4,1-phenyleneimino((2S)-1-oxo-1,2-propanediyl)))bis(3-chloro-1-naphthamide)]
- EC50 [1]: 4.57 to 99 nM

SMILES: O=C(Nc1ccc(-c2cc(-c3ccc(NC(=O)[C@@H]4CCCN4C(=O)c4cc5ccccc5o4)cc3)[nH]n2)cc1)[C@@H]1CCCN1C(=O)c1cc2ccccc2o1 [JG-40, (2S,2′S)-N,N′-(1H-pyrazole-3,5-diyldi-4,1-phenylene)bis(1-(1-benzofuran-2-ylcarbonyl)-2-pyrrolidinecarboxamide)]
- EC50 [1]: 100 to 999 nM

SMILES: Cn1cnc(CC(=O)N2CCC[C@H]2C(=O)Nc2ccc(-c3cnc(-c4ccc(NC(=O)[C@@H]5CCCN5C(=O)Cc5cn(C)cn5)cc4)o3)cc2)c1 [XY-42, (2S,2′S)-N,N′-(1,3-oxazole-2,5-diyldi-4,1-phenylene)bis(1-((1-methyl-1H-imidazol-4-yl)acetyl)-2-pyrrolidinecarboxamide)]
- EC50 [2]: 1000 to 10000 nM

SMILES: C[C@H](NC(=O)Cc1ccccc1)C(=O)Nc1ccc(-c2nnc(-c3ccc(NC(=O)[C@H](C)NC(=O)Cc4ccccc4)cc3)o2)cc1 [RK-23, (2S,2′S)-N,N′-(1,3,4-oxadiazole-2,5-diyldi-4,1-phenylene)bis(2-((phenylacetyl)amino)propanamide)]
- EC50 [1]: 100 to 999 nM

SMILES: O=C(Nc1ccc(-c2cnc(-c3ccc(NC(=O)[C@@H]4CCCN4C(=O)OCc4ccccc4)cc3)o2)cc1)[C@@H]1CCCN1C(=O)OCc1ccccc1 [JG-1, dibenzyl (2S,2′S)-2,2′-(1,3-oxazole-2,5-diylbis(4,1-phenylenecarbamoyl))di(1-pyrrolidinecarboxylate)]
- EC50 [1]: < 4.57 nM

SMILES: O=C(Nc1ccc(-c2cnc(-c3ccc(NC(=O)[C@@H]4CCCN4C(=O)c4ccco4)cc3)o2)cc1)[C@@H]1CCCN1C(=O)c1ccco1 [XY-37, (2S,2′S)-N,N′-(1,3-oxazole-2,5-diyldi-4,1-phenylene)bis(1-(2-furoyl)-2-pyrrolidinecarboxamide)]
- EC50 [2]: 100 to 999 nM

SMILES: Cn1ccnc1C(=O)N1CCC[C@H]1C(=O)Nc1ccc(-c2cnc(-c3ccc(NC(=O)[C@@H]4CCCN4C(=O)c4nccn4C)cc3)o2)cc1 [XY-21, (2S,2′S)-N,N′-(1,3-oxazole-2,5-diyldi-4,1-phenylene)bis(1-((1-methyl-1H-imidazol-2-yl)carbonyl)-2-pyrrolidinecarboxamide)]
- EC50 [2]: 1000 to 10000 nM

SMILES: CO[C@H](C(=O)N1CCC[C@H]1C(=O)Nc1ccc(-c2cc(-c3ccc(NC(=O)[C@@H]4CCCN4C(=O)[C@@H](OC)c4ccccc4)cc3)[nH]n2)cc1)c1ccccc1 [JG-38, (2S,2′S)-N,N′-(1H-pyrazole-3,5-diyldi-4,1-phenylene)bis(1-((2S)-2-methoxy-2-phenylacetyl)-2-pyrrolidinecarboxamide)]
- EC50 [1]: < 4.57 nM

SMILES: O=C(Nc1ccc(-c2cnc(-c3ccc(NC(=O)[C@@H]4CCCN4C(=O)Cc4ccc(F)cc4)cc3)o2)cc1)[C@@H]1CCCN1C(=O)Cc1ccc(F)cc1 [XY-22, (2S,2′S)-N,N′-(1,3-oxazole-2,5-diyldi-4,1-phenylene)bis(1-((4-fluorophenyl)acetyl)-2-pyrrolidinecarboxamide)]
- EC50 [2]: < 4.57 nM
- EC50 [3]: < 4.5 nM

SMILES: CN(C)C(C(=O)N1CCC[C@H]1C(=O)Nc1ccc(-c2cnc(-c3ccc(NC(=O)[C@@H]4CCCN4C(=O)C(c4ccc(F)cc4F)N(C)C)cc3)o2)cc1)c1ccc(F)cc1F (single isomer, unassigned) [Example D-6]
- EC50 (class symbol, read-out: EC50 Range against HCV 1b): < 4.57 nM

SMILES: O=C(Nc1ccc(-c2cnc(-c3ccc(NC(=O)[C@@H]4CCCN4C(=O)[C@H](O)c4ccccc4Cl)cc3)o2)cc1)[C@@H]1CCCN1C(=O)[C@H](O)c1ccccc1Cl [JG-26, (2S,2′S)-N,N′-(1,3-oxazole-2,5-diyldi-4,1-phenylene)bis(1-((2R)-2-(2-chlorophenyl)-2-hydroxyacetyl)-2-pyrrolidinecarboxamide)]
- EC50 [1]: < 4.57 nM

SMILES: CN(C)[C@@H](C(=O)N1CCCC1C(=O)Nc1ccc(-c2ncc(-c3ccc(NC(=O)[C@@H]4CCCN4C(=O)[C@@H](c4ccccc4)N(C)C)cc3)o2)cc1)c1ccccc1 (stereo partly drawn) [OL-51, (2S)-N,N′-(1,3-oxazole-2,5-diyldi-4,1-phenylene)bis(1-((2R)-2-(dimethylamino)-2-phenylacetyl)-2-pyrrolidinecarboxamide)]
- EC50 [1]: 4.57 to 99 nM

SMILES: O=C(Nc1ccc(-c2cnc(-c3ccc(NC(=O)[C@@H]4C[C@@H](O)CN4C(=O)CC4CC4)cc3)o2)cc1)[C@@H]1C[C@@H](O)CN1C(=O)CC1CC1 [XY-44, (2S,4R,2′S,4′R)-N,N′-(1,3-oxazole-2,5-diyldi-4,1-phenylene)bis(1-(cyclopropylacetyl)-4-hydroxy-2-pyrrolidinecarboxamide)]
- EC50 [2]: 1000 to 10000 nM

SMILES: CC(Oc1cccc(Cl)c1)C(=O)N1CCC[C@H]1C(=O)Nc1ccc(-c2cnc(-c3ccc(NC(=O)[C@@H]4CCCN4C(=O)C(C)Oc4cccc(Cl)c4)cc3)o2)cc1 (stereo partly drawn) [XY-12, (2S,2′S)-N,N′-(1,3-oxazole-2,5-diyldi-4,1-phenylene)bis(1-(2-(3-chlorophenoxy)propanoyl)-2-pyrrolidinecarboxamide)]
- EC50 [2]: 100 to 999 nM
- EC50 [3]: 220 nM

SMILES: Cn1cc(C(=O)C(=O)N2CCC[C@H]2C(=O)Nc2ccc(-c3cnc(-c4ccc(NC(=O)[C@@H]5CCCN5C(=O)C(=O)c5cn(C)c6ccccc56)cc4)o3)cc2)c2ccccc21 [JR-1, (2S,2′S)-N,N′-(2,5-oxazolediyldi-4,1-phenylene)bis[1-[2-(1-methyl-1H-indol-3-yl)-1,2-dioxoethyl]-2-pyrrolidinecarboxamide]]
- EC50 [2]: 100 to 999 nM

SMILES: O=C(Nc1ccc(-c2nnc(-c3ccc(NC(=O)[C@H]4CCCN4C(=O)c4cccc(F)n4)cc3)o2)cc1)[C@H]1CCCN1C(=O)c1cccc(F)n1 [RK-25, (2R,2′R)-N,N′-(1,3,4-oxadiazole-2,5-diyldi-4,1-phenylene)bis(1-((6-fluoro-2-pyridinyl)carbonyl)-2-pyrrolidinecarboxamide)]
- EC50 [1]: 100 to 999 nM

SMILES: CC(=O)N1CCC(C(=O)N2CCC[C@H]2C(=O)Nc2ccc(-c3cnc(-c4ccc(NC(=O)[C@@H]5CCCN5C(=O)C5CCN(C(C)=O)CC5)cc4)o3)cc2)CC1 [XY-23, (2S,2′S)-N,N′-(1,3-oxazole-2,5-diyldi-4,1-phenylene)bis(1-((1-acetyl-4-piperidinyl)carbonyl)-2-pyrrolidinecarboxamide)]
- EC50 [2]: 100 to 999 nM

SMILES: CC(C)[C@H](NC(=O)Cc1ccccc1)C(=O)Nc1ccc(-c2cnc(-c3ccc(NC(=O)[C@@H](NC(=O)Cc4ccccc4)C(C)C)cc3)o2)cc1 [JG-12, (2S,2′S)-N,N′-(1,3-oxazole-2,5-diyldi-4,1-phenylene)bis(3-methyl-2-((phenylacetyl)amino)butanamide)]
- EC50 [1]: 4.57 to 99 nM

SMILES: CC(=O)N1CCC[C@H]1C(=O)Nc1ccc(-c2ncc(-c3ccc(NC(=O)[C@@H]4CCCN4C(=O)Cc4ccccc4)cc3)o2)cc1 [MS-6, (2S)-1-acetyl-N-(4-(5-(4-((((2S)-1-(phenylacetyl)-2-pyrrolidinyl)carbonyl)amino)phenyl)-1,3-oxazol-2-yl)phenyl)-2-pyrrolidinecarboxamide]
- EC50 [1]: 100 to 999 nM
- EC50 [3]: 188 nM

— patent US8735398B2 (Bristol-Myers Squibb Company, priority 2009, dated 2014)
